These results are taken from patent US20040077616A1, “Spirocyclopropyl amides and acids and their therapeutic applications” (priority 2002, published 2004).

Assay [1] relates to CD-1 mice. The experiment in a line: Maximal Electroshock Procedure. The assay is classed as in vivo. The settings on record: Mus musculus, po, p.o. 30 minutes prior to electrical stimulation, PROBIT analysis, read-out: ED50 (dose at which 50% of the mice were protected from tonic seizures). As for the experimental part:
(§1) Adult, male, CD-1 mice (22-25 grams) were obtained from Charles River Laboratories (Portage, Mich.) and housed at Abbott Laboratories (Abbott Park) under standard lighting conditions of 12 hours on/12 hours off, with lights on at 6 a.m. Food and water were provided ad libitum and mice weighed 25-35 grams at the time of testing.
(§2) Compounds were prepared for oral administration by suspending them in a vehicle of 100 μL Tween® 80 per mL hydroxypropyl methylcellulose (2 mg/mL, Abbott Laboratories). Compound solutions were administered at a volume of 10 mL/kg, p.o.
The method used was similar to that of E. A. Swinyard, General principles: Experimental selection, quantification and evaluation of anti-convulsants, Anti-epileptic Drugs, Third Edition, R. Levey, et al., Editors. 1989, Raven Press Ltd: New York. Mice were pretreated orally with compounds of the present invention 30 minutes prior to electrical stimulation. Electrical stimulation consisted of pulsed electrical current (50 mA, 0.4 second duration, pulse width 0.5 msec, 60 pulses/sec) applied via corneal electrodes to induce seizure. The stimulation was delivered with an ECT Unit (Ugo Basile #7801). […] The percent protection from tonic seizures was calculated by dividing the number of protected mice by the total number in the group. […]
In general terms: In the maximal electroshock model the usual endpoint is tonic extension of the hind limbs.

In assay [2] the test system is CD-1 mice. The experiment in a line: Subcutaneous Pentylenetetrazole (PTZ) Seizure Procedure. The following applies: Mus musculus; PTZ 85 mg/kg s.c., compound p.o. 30 minutes prior to PTZ injection, linear regression; read-out: ED50 (dose at which 50% of the mice were protected from tonic seizures). The assay is classed as in vivo. How it is done: as §1, §2
The method used was similar to that of E. A. Swinyard, General principles: Experimental selection, quantification and evaluation of anti-convulsants, Anti-epileptic Drugs, Third Edition, R. Levey, et al., Editors. 1989, Raven Press Ltd: New York. During the experiment the mice were housed individually in clear polycarbonate cages for observation. […] Seizures were induced by the subcutaneous injection of pentylenetetrazole (PTZ, 85 mg/kg) just below the nape of the neck. […] A total of 20 mice were used in each group. The ED50for the compounds were calculated using linear regression and represent the dose at which 50% of the mice were protected from tonic seizures.

Structures are written as SMILES.

Regarding `CCCC(CCC)C(=O)O` [Valproate], the ED50 in assay [1] is 1200 µmol/kg; in assay [2], 1800 µmol/kg.

By ED50 is commonly meant the dose at which the effect has come halfway, by size or by number of responders.
